Data as given in the supplement of paper PMC10307832.

Legend:
Assay in all cases: relative viability (nuclei count vs DMSO), 5 days (fraction); higher = more cells survive
Linsitinib + Olaparib = compound: C[C@]1(O)C[C@@H](c2nc(-c3ccc4ccc(-c5ccccc5)nc4c3)c3c(N)nccn32)C1 [Linsitinib] + O=C(c1cc(Cc2n[nH]c(=O)c3ccccc23)ccc1F)N1CCN(C(=O)C2CC2)CC1 [Olaparib] (partner 8 µM)
In short: (§1)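 Lung cancer cell lines in 1536-well plates got either a single drug or a fixed anchor-drug dose together with five library-drug doses (not always all listed) in √10 steps, by pin tool, on the day after seeding. Nuclei were counted after 5 days, and relative viability is the treated-to-vehicle ratio of nuclei counts. Values are medians of duplicate plates.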

Ispinesib + OSI-027 = compound: Cc1ccc(C(=O)N(CCCN)[C@@H](c2nc3cc(Cl)ccc3c(=O)n2Cc2ccccc2)C(C)C)cc1 [Ispinesib] + COc1cccc2cc(-c3nc([C@H]4CC[C@H](C(=O)O)CC4)n4ncnc(N)c34)[nH]c12 [OSI-027] (partner 0.5 µM)
In short: as §1

Ispinesib + AZD7762 = compound: Cc1ccc(C(=O)N(CCCN)[C@@H](c2nc3cc(Cl)ccc3c(=O)n2Cc2ccccc2)C(C)C)cc1 [Ispinesib] + NC(=O)Nc1cc(-c2cccc(F)c2)sc1C(=O)N[C@H]1CCCNC1 [AZD7762] (partner 0.2 µM)
In short: as §1

Linsitinib + Navitoclax = compound: C[C@]1(O)C[C@@H](c2nc(-c3ccc4ccc(-c5ccccc5)nc4c3)c3c(N)nccn32)C1 [Linsitinib] + CC1(C)CCC(c2ccc(Cl)cc2)=C(CN2CCN(c3ccc(C(=O)NS(=O)(=O)c4ccc(N[C@H](CCN5CCOCC5)CSc5ccccc5)c(S(=O)(=O)C(F)(F)F)c4)cc3)CC2)C1 [Navitoclax] (partner 0.5 µM)
In short: as §1

Cell Line	relative viability (Linsitinib + Olaparib; first compound 0.01 µM)	relative viability (Linsitinib + Olaparib; first compound 0.03162 µM)	relative viability (Linsitinib + Olaparib; first compound 0.1 µM)	relative viability (Linsitinib + Olaparib; first compound 1 µM)	relative viability (Ispinesib + OSI-027; first compound 0.001 µM)	relative viability (Ispinesib + OSI-027; first compound 0.003162 µM)	relative viability (Ispinesib + OSI-027; first compound 0.01 µM)	relative viability (Ispinesib + OSI-027; first compound 0.03162 µM)	relative viability (Ispinesib + OSI-027; first compound 0.1 µM)	relative viability (Ispinesib + AZD7762; first compound 0.001 µM)	relative viability (Ispinesib + AZD7762; first compound 0.003162 µM)	relative viability (Ispinesib + AZD7762; first compound 0.01 µM)	relative viability (Ispinesib + AZD7762; first compound 0.03162 µM)	relative viability (Ispinesib + AZD7762; first compound 0.1 µM)	relative viability (Linsitinib + Navitoclax; first compound 0.01 µM)	relative viability (Linsitinib + Navitoclax; first compound 0.03162 µM)	relative viability (Linsitinib + Navitoclax; first compound 0.1 µM)	relative viability (Linsitinib + Navitoclax; first compound 0.3162 µM)	relative viability (Linsitinib + Navitoclax; first compound 1 µM)	relative viability (Linsitinib + Olaparib; first compound 0.3162 µM)
NCI-H650	0.381	0.537	0.405	0.398	0.571	0.624	0.585	0.381	0.23	1.15	1.21	1.09	0.634	0.456	–	–	–	–	–	–
IA-LM	0.906	0.976	0.871	0.75	–	–	–	–	–	–	–	–	–	–	0.882	0.785	0.775	0.6	0.531	0.796
A-427	0.71	0.73	0.75	0.584	0.508	0.449	0.571	0.155	0.181	0.853	0.817	0.976	0.462	0.32	0.97	0.964	0.999	–	0.967	–
NCI-H2347	0.584	0.687	0.598	0.596	0.317	0.421	0.456	0.368	0.437	0.558	0.856	0.745	0.701	0.636	0.731	0.915	0.717	0.533	0.754	0.608
NCI-H1793	0.772	0.841	0.628	0.697	0.275	0.343	0.294	0.22	0.16	0.476	0.494	0.352	0.412	0.295	0.374	0.353	0.469	0.322	0.425	0.666
NCI-H1651	0.18	0.169	0.191	0.178	0.837	0.696	0.848	0.684	0.137	0.531	0.561	0.524	0.441	0.408	0.978	1.1	0.925	0.958	0.981	0.171
HCC-78	–	1	0.706	0.506	0.439	0.448	0.368	0.345	0.318	0.691	0.592	0.532	0.526	0.422	0.882	0.889	0.711	0.789	0.661	0.916
NCI-H23	0.33	0.317	0.29	0.182	0.581	0.656	0.808	0.235	0.201	0.202	0.254	0.274	0.184	0.157	0.811	0.854	0.761	0.581	0.652	0.218
LOU-NH91	0.911	0.841	0.941	0.903	0.72	0.776	0.83	0.59	0.236	0.807	0.854	0.877	0.432	0.297	0.786	0.651	0.707	0.686	0.678	0.857
LXF-289	1.11	1.13	1.17	1.05	0.813	0.834	0.806	0.593	0.0721	1.09	1.12	1.22	0.788	0.119	0.951	0.932	0.929	0.783	0.939	0.797
NCI-H460	0.423	0.273	0.421	0.332	0.787	0.835	1.03	0.417	0.0414	0.711	0.757	1.01	0.632	0.0769	1.08	0.97	1.25	1.01	1.12	–
NCI-H1792	0.341	0.348	0.373	0.172	0.889	1.09	0.743	0.862	0.356	0.73	0.742	0.828	0.119	0.157	0.553	0.597	0.5	0.54	0.438	0.298
EMC-BAC-2	0.478	0.601	0.47	0.37	0.388	0.402	0.356	0.25	0.309	1.22	1.23	1.34	0.704	0.599	1.16	1.17	1.14	0.996	1.16	0.348
CAL-12T	0.79	0.899	0.784	0.713	0.737	0.584	0.701	0.166	0.177	0.707	0.74	0.594	0.52	0.212	1.2	1.2	1.28	1.05	0.991	0.689
ChaGo-K-1	0.426	0.404	0.401	0.365	0.529	0.627	0.582	0.627	0.222	1.01	0.874	0.879	0.903	0.245	1.09	0.793	0.829	0.377	0.939	–
COR-L 105	0.762	0.635	0.685	0.516	0.769	0.603	0.585	0.266	0.305	–	–	–	–	–	0.826	0.759	0.856	0.604	0.709	0.538
NCI-H1944	0.437	0.521	0.4	0.382	0.398	0.449	0.426	0.338	0.17	0.443	0.483	0.482	0.32	0.189	1.02	1.1	1.04	0.93	0.917	0.333
